Laboratory results published in ChEMBL document CHEMBL5576093, “Design, synthesis and evaluation of bioactivity of peptidomimetics based on chloroalkene dipeptide isosteres” (Bioorg Med Chem, 2024).

Columns and labels:
[1] = target: Amyloid-beta precursor protein (Homo sapiens) (UniProt P05067); test: Inhibition of amyloid-beta (1 to 42 residues) (unknown origin) aggregation at 20 uM incubated for 6 hrs by ThT fluorescence based spectrofluorimetric analysis relative to control
[2] = target: C-X-C chemokine receptor type 4 (Homo sapiens, UniProt P61073); test: Antagonist activity at CXCR4 (unknown origin); format: functional
[3] = target: Amyloid-beta precursor protein (Homo sapiens) (UniProt P05067); test: Inhibition of amyloid-beta (1 to 42 residues) (unknown origin) aggregation at 10 uM incubated for 6 hrs by ThT fluorescence based spectrofluorimetric analysis relative to control

Amyloid-beta precursor protein (Homo sapiens), sequence (P05067 whole entry, the tested form may be a part): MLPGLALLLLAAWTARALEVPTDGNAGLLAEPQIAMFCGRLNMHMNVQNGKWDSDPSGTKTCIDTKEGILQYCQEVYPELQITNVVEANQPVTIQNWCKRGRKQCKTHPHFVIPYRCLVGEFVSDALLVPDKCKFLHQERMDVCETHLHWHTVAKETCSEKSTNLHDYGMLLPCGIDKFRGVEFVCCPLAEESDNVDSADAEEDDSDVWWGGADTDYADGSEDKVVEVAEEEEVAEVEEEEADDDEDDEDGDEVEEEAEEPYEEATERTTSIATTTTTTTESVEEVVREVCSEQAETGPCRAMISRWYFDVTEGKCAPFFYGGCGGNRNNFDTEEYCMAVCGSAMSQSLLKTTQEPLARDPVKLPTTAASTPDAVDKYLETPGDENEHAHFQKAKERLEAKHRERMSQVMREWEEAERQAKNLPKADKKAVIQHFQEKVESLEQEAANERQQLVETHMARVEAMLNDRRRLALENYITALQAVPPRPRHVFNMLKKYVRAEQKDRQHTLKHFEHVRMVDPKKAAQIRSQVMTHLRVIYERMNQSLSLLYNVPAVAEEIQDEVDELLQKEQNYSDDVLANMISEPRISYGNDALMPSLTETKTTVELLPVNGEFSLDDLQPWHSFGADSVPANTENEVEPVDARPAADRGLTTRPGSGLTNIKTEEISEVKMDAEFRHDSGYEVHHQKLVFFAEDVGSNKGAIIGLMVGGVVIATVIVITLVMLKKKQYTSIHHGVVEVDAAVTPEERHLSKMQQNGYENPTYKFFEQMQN
C-X-C chemokine receptor type 4, sequence (P61073 whole entry, the tested form may be a part): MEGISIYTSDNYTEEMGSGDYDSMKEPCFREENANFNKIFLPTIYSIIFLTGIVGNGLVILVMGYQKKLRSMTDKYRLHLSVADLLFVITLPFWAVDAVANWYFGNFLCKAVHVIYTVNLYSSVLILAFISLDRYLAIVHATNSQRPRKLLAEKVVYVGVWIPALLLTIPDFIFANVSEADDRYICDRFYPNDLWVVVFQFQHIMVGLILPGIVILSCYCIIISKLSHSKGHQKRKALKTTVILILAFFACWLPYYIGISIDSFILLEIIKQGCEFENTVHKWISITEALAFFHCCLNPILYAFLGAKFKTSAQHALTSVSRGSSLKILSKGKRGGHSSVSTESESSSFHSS

Compound `O=c1c(O)c(-c2ccc(O)cc2O)oc2cc(O)cc(O)c12` has an inhibition [1] of 36%.
For `CC(C)C[C@H](NC(=O)[C@@H](N)CCCCN)C(=O)N[C@H](C(=O)N[C@@H](Cc1ccccc1)C(=O)N[C@@H](Cc1ccccc1)C(=O)O)C(C)C`, the inhibition [1] was 90.2%.
With `N=C(N)NCCC[C@@H]1NC(=O)[C@@H](Cc2ccc(O)cc2)NC(=O)CNC(=O)[C@H](Cc2ccc3ccccc3c2)NC(=O)[C@H](CCCNC(=N)N)/C=C/1F` the EC50 [2] was 1780 nM.
`N=C(N)NCCC[C@H]1/C=C/[C@@H](CCCNC(=N)N)C(=O)N[C@@H](Cc2ccc3ccccc3c2)C(=O)NCC(=O)N[C@H](Cc2ccc(O)cc2)C(=O)N1` showed an EC50 [2] of 1460 nM.
Work on `CC(C)C[C@H](NC(=O)[C@@H](N)CCCCN)C(=O)N[C@H](C(=O)/C(Cl)=C/N[C@@H](Cc1ccccc1)C(=O)N[C@@H](Cc1ccccc1)C(=O)O)C(C)C` yielded an inhibition [1] of 79.6%.
`CC(C)C[C@H]1NC(=O)[C@H](CCCCN)NC(=O)[C@H](Cc2ccccc2)NC(=O)[C@@H](Cc2ccccc2)N/C=C(\Cl)C(=O)[C@H](C(C)C)NC1=O` gave an inhibition [1] of 24.6% and an inhibition [3] of 30.1%.
For `CC(C)C[C@@H]1NC(=O)[C@@H](CCCCN)NC(=O)[C@@H](Cc2ccccc2)NC(=O)[C@H](Cc2ccccc2)NC(=O)[C@@H](C(C)C)NC1=O`, the inhibition [1] was 20.3% and the inhibition [3] was 77.9%.
